Experimental data from patent US9962341B2, “Active pharmaceutical ingredient (API) comprising cannabinoids for use in the treatment of cancer” (GW Pharma Limited, priority 2014, dated 2018).

Columns and labels:
HepG2 = test: Cell viability (CellTiter-Blue, 72 h), HepG2 liver cancer cells; type: cell-based; details: Homo sapiens, HepG2, 72 h, read-out: IC50 values
Description: The cell lines tested in this Example were as follows. Breast cancer: MDA-MB-231; SK-BR3; and BT474. Liver cancer: HepG2.
(§1) The phytocannabinoids were tested alone and in various ratioed combinations in media containing final concentrations of 10% and 1% foetal bovine serum at 72 h for the breast and prostate cancer lines and 1% foetal bovine serum for the liver cancer line HepG2.
Each tumour cell line was maintained in vitro in RPMI 1640+10% heat inactivated FBS and 2 mM L-glutamine (growth media) at 37° C. in 5% CO2 and humidified conditions. The cells were harvested, washed, re-suspended into growth medium and counted. The cells were re-suspended into assay media (RPMI 1640+5% heat inactivated FBS+ and 2 mM L-glutamine) at 8×104-2×10^5 cells/ml (dependent upon cell type) and plated into the middle 240 wells of 384 well tissue culture plates (Corning CellBind, black-wall plates) 12.5 μl/well aliquots; 62.5 μl of growth media was aliquoted into the outer wells. There were 4 plates for each cell line. The plates were incubated overnight at 37° C., in 5% humidified CO2.
The phytocannabinoid test compounds were prepared in 100% DMSO vehicle at a stock concentration of 10 mM.
Starting with the 10 mM stock, the compounds were diluted to 125 μM in FBS-free growth media.
These were diluted in FBS-free growth media to 125 μM before serial dilution.
5 volumes of CBD 10 mM stock was added to 1 volume of the other agent (also at 10 mM) and 4 volumes of DMSO. This made a final concentration of 5 mM:1 mM. This was then diluted in FBS-free growth media so the top concentration of CBD would be 125 μM (before serial dilution). Each compound and compound combination stock was serially diluted in FBS-free growth media (containing 1.25% v/v DMSO) from 125 μM to 41.7, 13.89, 4.63, 1.54, 0.514, 0.171, 0.057 and 0.019 μM (1.25× final assay concentrations). Vehicle was prepared at equivalent dilutions in assay media. The top final concentration of compound in the assay was always 100 μM so CBD5:1CBG was 100 μM CBD and 20 μM CBG.
The plates were incubated for 72 h at 37° C. in 5% humidified CO2. To develop the plates, at 72 h, 10 μl of CellTiter-Blue™ reagent was added to each test/blank well. The plates were incubated at 37° C., 5% humidified CO2. Fluorescence was measured using a Flex II Station plate reader (570 nm excitation wavelength, 600 nm emission wavelength, 590 nm cut-off) after 3 h.
The raw data values expressed in relative fluorescent units were normalised to the vehicle for each individual plate and any reduction in fluorescence indicated a decrease in viability.
The data were analysed in GraphPad PRISM using a non-linear sigmoidal plot with variable slope (asymmetric five point linear regression) and where possible an IC50 value for each single compound and combination was generated.

[1] = system: LNCAP cells compared to DU145 cells; test: Cell viability, prostate cancer lines LNCAP and DU145 (potency comparison); type: cell-based; details: media containing 10% FBS
Description: as §1

C=C(C)[C@@H]1CCC(C)=C[C@H]1c1c(O)cc(CCCCC)cc1O [CBD, Cannabidiol]
IC50 (HepG2): 3.3 µM

C=C(C)[C@@H]1CCC(C)=C[C@H]1c1c(O)cc(CCCCC)c(C(=O)O)c1O [CBDA, Cannabidiolic acid]
IC50 (HepG2): 7.4 µM

CCCCCc1cc(O)c(C/C=C(\C)CCC=C(C)C)c(O)c1C(=O)O [CBGA, Cannabigerolic acid]
IC50 (HepG2): 9.3 µM

CCCCCc1cc(O)c(C/C=C(\C)CCC=C(C)C)c(O)c1 [CBG, Cannabigerol]
IC50 (HepG2): 3.7 µM

CCCc1cc(O)c2c(c1)OC(C)(C)[C@@H]1CCC(C)=C[C@@H]21 [THCV, Tetrahydrocannabivarin]
IC50 (HepG2): 7.2 µM
fold more potent in LNCAP cells compared to DU145 cells [1]: 5 fold
